# Data reported in patent US5039689A, “Antiparasitic 3(4-amino benzotriazo-1-yl-)1,2-cyclopentanediols” (Burroughs Wellcome Co., priority 1988, dated 1991).
# How the values were obtained:
# [1] = test system: Trypanosoma brucei gambiense; experiment: Activity against Trypanosoma brucei gambiense (procyclic culture, 5 days, density by Coulter Counter); type: cell-based, T. brucei subsp. gambiense procyclic (strain TH114); settings: 120 h, T. brucei gambiense procyclic TH114, medium PDM-79, 27° C., read-out: I50
# Experimental: A) Activity against Trypanosoma brucei gambiense 1. T. brucei subsp. gambiense procyclic (strain TH114 from the Institut fur Schiffs und Tropenkrankheiten, Hamburg) were grown in medium PDM-79 (Fish et al; BBA714[1982]422-428) in 25 cm^2 tissue (T-25) culture flasks at 27° C. in a 5% CO^2 /air atmosphere. Drugs were dissolved in 0.1N NaOH and their concentration determined from their spectral data. Drugs were added to the PDM-79 at a volume≤1% of the total volume and the drug containing medium filter-sterilised into T-25 flasks. Flasks were inoculated to a final density of ≈10^5 /ml and incubated for 5 days at which time their density was determined by a Coulter Counter (Model ZB1). Results were expressed as % inhibition relative to the controls.
# Pneumocystis carinii = experiment: Activity against Pneumocystis carinii (method of Pesanti); type: cell-based; settings: read-out: I50
# Experimental: (B) Activity against Pneumocystis carinii
# The compounds were tested according to the method of Pesanti, (J. Infect. Dis., 141(6), 775-780, 1980).
# [2] = Oral toxicology test in rats; type: in vivo; settings: Charles River CD rats, 4 mg/kg for 30 days
# Experimental: Charles River CD rats were given oral doses of the compound of Example 3 at 4 mg/kg for 30 days.
SMILES,IC50 [1],IC50 (Pneumocystis carinii),"treatment-related changes with respect to clinical signs of toxicity, body weight, clinical pathology or pathology [2]"
"Nc1ncnc2c1ncn2[C@@H]1CC[C@@H](O)[C@H]1O (relative stereo) [Example 1C, (±)-(1R*,2S*,3R*)-3-(6-Amino-9H-purin-9-yl)-1,2-cyclopentanediol]",0.7 nM,–,–
"Nc1ncnc2c1ncn2[C@H]1CC[C@@H](O)[C@H]1O (relative stereo) [Example 2, (±)-(1R*,2S*,3S*)-3-(6-Amino-9H-purin-9-yl)-1,2-cyclopentanediol]",1000 nM,< 20 µM,–
"Nc1ncnc2c1nnn2[C@@H]1CC[C@@H](O)[C@H]1O (relative stereo) [Example 3C, (±)-(1R*,2S*,3R*)-3-(7-Amino-3H-1,2,3-triazolo[4,5-d]pyrimidin-3-yl)-1,2-cyclopentanediol]",200 nM,< 20 µM,No treatment-related changes were observed
"Nc1ncnc2c1ncn2[C@@H]1C[C@H](CCl)[C@@H](O)[C@H]1O (relative stereo) [Example 4, (±)-(1R*,2S*,3R*,5S*)-3-(6-Amino-9H-purin-9-yl)-5-(chloromethyl)-1,2-cyclopentanediol]",3500 nM,–,–
"C[C@H]1C[C@@H](n2cnc3c(N)ncnc32)[C@H](O)[C@@H]1O (relative stereo) [Example 5, (±)-(1R*,2S*,3R*,5S*)-3-(6-Amino-9H-purin-9-yl)-5-methyl-1,2-cyclopentanediol]",2 nM,–,–
"NC(=O)[C@@H]1C[C@H](n2cnc3c(N)ncnc32)[C@@H](O)[C@H]1O (relative stereo) [Example 6, (±)-(1R*,2S*,3R*,4S*)-4-(6-Amino-9H-purin-9-yl)-2,3-dihydroxy-1-cyclopentanecarboxamide]",40 to 200 nM,–,–
